Series [1] relates to HIV-2(ROD). Put plainly: Anti-HIV activity assay, HIV-2-infected thymidine-kinase-deficient CEM/TK- cell cultures. The note with it: for EC50: mean±SD, n=2-3. The series is classed as cell-based. The procedure: (§1) γ‐(AB,alkyl)‐d4TTP prodrugs 6 and the γ‐alkyl‐d4TTPs 7 were evaluated for their ability to inhibit the replication of HIV in HIV‐1‐ or HIV‐2‐infected wild‐type CEM/0 as well as mutant thymidine‐kinase‐deficient CEM cell cultures (CEM/TK^−). For comparison, two TriPPPro derivatives 5 were also included in this assay.
(§2) Anti-HIV activity assay: Inhibition of HIV-1(IIIB)- and HIV-2(ROD)-induced cytopathicity in wild-type CEM/0 and thymidine kinase-deficient CEM/TK- cell cultures was measured in microtiter 96-well plates containing ~3·105 CEM cells/mL infected with 100 CCID50 of HIV per milliliter and containing appropriate dilutions of the test compounds. After 4−5 days of incubation at 37 °C in a CO2-controlled humidified atmosphere, CEM giant (syncytium) cell formation was examined microscopically. […]
(§3) was defined as the compound concentration required to inhibit HIV-induced giant cell formation by 50%. […]
(§4) The result was visualized by fluorescence imaging. […]
as §4

The next series has as its system HIV-1(IIIB). Put plainly: Anti-HIV activity assay, HIV-1-infected wild-type CEM/0 cell cultures. Format: cell-based. The note with it: Human immunodeficiency virus 1, IIIB, CCRF-CEM, read-out: EC50 CEM/0 HIV-1. As for the experimental part:
as §1, §2, §3, §4, §4

In series [2] the test system is HIV-2(ROD). Put plainly: Anti-HIV activity assay, HIV-2-infected wild-type CEM/0 cell cultures. Format: cell-based. The following applies: Human immunodeficiency virus 2, CCRF-CEM, read-out: EC50 CEM/0 HIV-2. The procedure: as §1, §2, §3, §4, §4
The test system of another series is pig liver esterase (PLE). Put plainly: Enzymatic hydrolysis with pig liver esterase (PLE). The series is classed as in vitro ADME. The following applies: pH 7.3, 37 °C; for half-life at 0.45 mM: pig liver esterase (PLE) in PBS, pig liver esterase in PBS, read-out: t 1/2 with PLE (cleavage of acyloxybenzyl masking unit); for cleavage of the alkyl residue by esterase: PLE in PBS. The procedure: Next, the enzymatic stability of prodrugs γ‐(AB‐C4,alkyl‐C18)‐d4TTP 6 cz and γ‐(AB‐C15,alkyl‐C4)‐d4TTP 6 ew was examined by incubation with PLE, which is used as a model enzyme for studying the esterase activation of the prodrugs, in PBS, pH 7.3 at 37 °C. […] This proves our initial concept of introducing an enzyme (esterase)‐stable group to the γ‐phosphate unit.
ProLab 300 from Schott Co.. Thermomixer: Eppendorf Thermomixer 5436 and CellMedia Thermoschüttler basic were used.
Fluorescent Imager: ChemiDoc™ MP Imaging System (170-8280) from Bio-Rad Co. was used for primer extension study.
Electrophoresis: Thermo Fisher OwlTM S4S Aluminum-Backed Sequencer System. Power supply: Consort EV2230 Gel […]
Further aliquots were taken for monitoring the kinetic hydrolysis. The exponential decay curves (pseudo-first order) based on absolute integral values were calculated with commercially available software (OriginPro 9.0G) and yielded the half-lives t1/2 of the prodrugs via one determination.
Enzymatic hydrolysis of compounds 6,7 with pig liver esterase (PLE):
10 µL 50 mM DMSO stock solution of compounds 6,7 was diluted to 6.0 mM hydrolysis solution by addition of 31.7 µL DMSO and 41.7 µL ultrapure water. Then 83.3 µl of the 6.0 mM solution was diluted with 125 µL DMSO and 833 µl 50 mM PBS buffer (pH 7.3).
The reaction was started by addition of 62.5 µl of PLE in PBS buffer (3 mg/mL) and the mixture was incubated with 800 rpm at 37 °C in a thermomixer. At different times, aliquots (100 µl) were taken and the reaction was stopped by addition to […] MeOH. The mixture was kept for 5 min on ice followed by centrifugation for 5 min (13000 rpm). The mixture was filtered (Chromafil RC-20/15 MS, […]) and stored in liquid nitrogen. When testing, the samples were defrosted and injection volume with 80 µL was used for HPLC […]
The calculation of t1/2 was performed analogously to that for the chemical hydrolysis studies.
Preparation of cell extracts: Human CD4+ T-lymphocyte CEM cells were grown in RPMI-1640-based cell culture medium to a final density of ~3·10^6 cells/ml. Then, cells were centrifuged for 10 min at 1,250 rpm at 4 °C, washed twice with cold PBS, and the pellet was re-suspended at 10^8 cells/ml and sonicated (Hielscher Ultrasound Techn., 100% amplitude, 3·times for 10 sec) to destroy cell integrity. The resulting cell suspension was then centrifuged at 10,000 rpm to remove cell debris, and the supernatant divided in aliquots before being frozen at -80 C and used.
(1 picture or pasted object on this page, not shown here)

The target in series [3] is T1, HIV reverse transcriptase (RT) (Human immunodeficiency virus type 1 group M subtype B, UniProt P03366).
T1 construct: reverse transcriptase (RT; an HIV‐encoded RNA‐dependent DNA polymerase); purchased Roboklon
Put plainly: Primer extension assay with HIV-RT. The note with it: for primer extension by HIV-RT (substrate properties): with the other three canonical triphosphates, HIV-RT 6 U. Format: biochemical, HIV-1. The procedure: Primer-extension reactions:
HIV-RT and human DNA polymerase β and γ were obtained from Roboklon, human DNA polymerase α was obtained from Chimerx.
The primers and templates were purchased from Life Technologies and Microsynth. The fluorescent labeled primer was purchased
from Metabion and Microsynth. The gels were prepared with the size of 450mm×200mm×0.4mm according to the electrophoresis
5’-FITC and 5’-Cy3 labeled Primer-sequence:
The primer extension assays were performed under the following conditions:
FITC and Cy3 labeled primer extension assay:
1) Hybridization: After 5 min incubation at 95 °C in 20 mM Tris-HCl (pH 7.6) and 50 mM NaCl, the hybridization/annealing of the
primer to the template strand was achieved by a cooling phase from 95 °C to […] lasted more than 2 hours. […]
The assays were separated using a denaturating PAGE (15%). The result was visualized by fluorescence imaging. […]
as §4, §4

Setting [4] is: Human immunodeficiency virus 2, thymidine-kinase-deficient CEM/TK− cells, HIV-2, read-out: EC50 CEM/TK− HIV-2.
Setting [5] is: wild-type CEM/0 cells, HIV-1, mean±SD, n=2-3.
Where [6] appears, read: wild-type CEM/0 cells, HIV-2, mean±SD, n=2-3.
Where [7] appears, read: Human immunodeficiency virus 2, CEM-TK(-), read-out: EC50 CEM/TK− HIV-2, thymidine-kinase-deficient CEM/TK− cells, HIV-2.
The mark [8] stands for this setting: read-out: EC50 CEM/TK− HIV-2, thymidine-kinase-deficient CEM/TK− cells, HIV-2.

Read-outs that look alike come from different tables or passages of the source. Some results are limits rather than exact numbers.

Turning to `CCCCCCCCCCCCCCCCCCOP(=O)(OCc1ccc(OC(=O)CCCC)cc1)OP(=O)(O)OP(=O)(O)OCC1C=CC(n2cc(C)c(=O)[nH]c2=O)O1` (centres unmarked) [6 cz, γ‐(AB‐C4,alkyl‐C18)‐d4TTP], the EC50 in the series on HIV-2(ROD) [1] (setting [4]) is 170 nM; in the series on HIV-1(IIIB) (setting [5]) it was 180 ± 90 nM; in the series with HIV-2(ROD) [2] (setting [6]) it was 160 ± 100 nM. In addition, the half-life at 0.45 mM with pig liver esterase (PLE) came out at 8.1 min.
For the compound `CCCCOP(=O)(O)OP(=O)(O)OP(=O)(O)OCC1C=CC(n2cc(C)c(=O)[nH]c2=O)O1` (centres unmarked) [7 w, γ‐C4‐d4TTP], the “antiviral activity in CEM/TK− cell cultures (in words)” value (shortened to “antiviral activity … (in words)”) in the series with HIV-2(ROD) [1] (HIV-2-infected CEM/TK− cells) was “almost inactive”. In addition, the EC50 with HIV-2(ROD) [1] (setting [7]) is 35000 nM; in the series with HIV-2(ROD) [1] (setting [8]), 36000 ± 29000 nM; in the series on HIV-1(IIIB), 950 ± 510 nM; in the series on HIV-2(ROD) [2], 290 ± 150 nM. For the same compound, in series [3] (15 min incubation), the “primer extension by HIV-RT (substrate properties)” value (shortened to “primer extension by HIV-RT”) was “single incorporation and an immediate chain termination”. Moreover, the “comparison of substrate properties for HIV-RT” value in series [3] (incubation 10, 20, 40 and 60 min, conversion of primer to n+1 product) is recorded as “better substrates”. In the series with pig liver esterase (PLE), the “cleavage of the alkyl residue by esterase” value is given as “no cleavage of the alkyl residue”.
`CCCCCCCCCCCCCCCCCCOP(=O)(O)OP(=O)(O)OP(=O)(O)OCC1C=CC(n2cc(C)c(=O)[nH]c2=O)O1` (centres unmarked) [7 z, γ‐C18‐d4TTP]: the “antiviral activity improved versus TriPPPro intermediates comprising a C17 aliphatic chain” value with HIV-2(ROD) [1] (HIV-2-infected CEM/TK− cells) stood at 30 fold. In addition, the “antiviral activity … (in words)” value in the series with HIV-2(ROD) [1] (HIV-2-infected CEM/TK− cells) is “highly potent”. Moreover, the “more active than d4T” value in the series on HIV-2(ROD) [1] (HIV-2-infected CEM/TK− cells) was 2700 fold. In addition, the EC50 was determined as 55 nM with HIV-2(ROD) [1] (setting [7]), 50 ± 27 nM in the series with HIV-2(ROD) [1] (setting [8]), 110 ± 42 nM in the series on HIV-1(IIIB) and 110 ± 84 nM in the series with HIV-2(ROD) [2]. For the same compound, the “primer extension by HIV-RT” value in series [3] (30 min incubation) is recorded as “immediate chain termination”; in series [3] (60 min incubation, dNTPs 66 μM) it was “Only the n+1 band was detected”. The “cleavage of the alkyl residue by esterase” value in the series on pig liver esterase (PLE) is “no cleavage of the alkyl residue”.
As for `Cc1cn(C2C=CC(COP(=O)(O)OP(=O)(O)OP(=O)(O)O)O2)c(=O)[nH]c1=O` (centres unmarked) [2 t, d4TTP, reference compound], the “antiviral activity … (in words)” value with HIV-2(ROD) [1] (HIV-2-infected CEM/TK− cells) is “inactive”. The EC50 is above 100000 nM in the series with HIV-2(ROD) [1] (setting [7]), 1050 ± 350 nM in the series on HIV-1(IIIB) and 400 ± 260 nM in the series on HIV-2(ROD) [2]. The “primer extension by HIV-RT” value in series [3] (60 min incubation, dNTPs 66 μM) is listed as “only the n+1 band is visible”.
As to `CCCCCCCCCCCCCCCC(=O)Oc1ccc(COP(=O)(OCCCC)OP(=O)(O)OP(=O)(O)OCC2C=CC(n3cc(C)c(=O)[nH]c3=O)O2)cc1` (centres unmarked) [6 ew, γ‐(AB‐C15,alkyl‐C4)‐d4TTP], the “antiviral activity … (in words)” value in the series on HIV-2(ROD) [1] (HIV-2-infected CEM/TK− cells) was “inactive”. The EC50 in the series on HIV-2(ROD) [1] (setting [4]) was above 10000 nM; in the series with HIV-1(IIIB) (setting [5]), 330 ± 110 nM; with HIV-2(ROD) [2] (setting [6]), 240 ± 10 nM. For the same compound, the half-life at 0.45 mM in the series on pig liver esterase (PLE) is 25.5 min.

Values taken from PMC7756582, “Prodrugs of γ‐Alkyl‐Modified Nucleoside Triphosphates: Improved Inhibition of HIV Reverse Transcriptase” (Angewandte Chemie (International Ed. in English), 2020).
